For one experiment, the target named is T1, human sEH (Homo sapiens, UniProt P34913).
T1 construct: made in house
T1 sequence (P34913 1-555): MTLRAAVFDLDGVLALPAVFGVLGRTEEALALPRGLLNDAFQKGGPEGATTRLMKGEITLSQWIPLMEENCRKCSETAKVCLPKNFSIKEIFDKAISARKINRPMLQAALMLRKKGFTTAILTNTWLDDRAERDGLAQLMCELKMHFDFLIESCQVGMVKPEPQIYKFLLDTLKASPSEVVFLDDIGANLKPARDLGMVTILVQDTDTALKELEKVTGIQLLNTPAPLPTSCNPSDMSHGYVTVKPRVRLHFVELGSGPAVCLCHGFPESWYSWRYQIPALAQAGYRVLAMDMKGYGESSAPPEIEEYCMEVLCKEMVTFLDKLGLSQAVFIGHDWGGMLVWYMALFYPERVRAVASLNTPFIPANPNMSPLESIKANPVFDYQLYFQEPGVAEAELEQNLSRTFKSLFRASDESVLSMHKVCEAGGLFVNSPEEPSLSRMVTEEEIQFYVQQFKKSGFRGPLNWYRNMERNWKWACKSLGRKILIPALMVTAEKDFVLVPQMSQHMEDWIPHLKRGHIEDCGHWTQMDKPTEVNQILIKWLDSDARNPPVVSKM
The experiment can be described thus: sEH inhibition, fluorescent assay with cyano(6-methoxy-naphthalen-2-yl)methyl trans-[(3-phenyloxiran-2-yl)methyl]carbonate as substrate. The class given is biochemical. The settings on record: 792 vs. 687; 1001, 1002 and 798 vs. the sulfonylamides. The method, then: Recombinant mouse sEH and human sEH were produced in a baculovirus expression system and purified by affinity chromatography. […] Protein concentration was quantified by using the Pierce BCA assay using Fraction V bovine serum albumin as the calibrating standard.
Enzyme activity was measured by monitoring the appearance of 6-methoxy-2-naphthaldehyde. Assays were performed in triplicate. […] IC50 values were determined by regression of at least five datum points, with a minimum of two datum points in the linear region of the curve on either side of the IC50 values. The curve was generated from at least three separate runs, each in triplicate.
Consider `CCNC(=O)CCCCCCCCCCCNC(=O)NC12CC3CC(CC(C3)C1)C2` [Compound 792, 1-(1-Adamantyl)-3-(11-ethylaminocarbonylundecyl)urea], for which the “fold decrease in inhibition potency on human sEH” value worked out at 1.5 fold.

Still in this experiment, the particulars now being: Table 5; fluorescent-based assay, 0.96 nM human sEH, pH 7.0, [S] = 5 μM; read-out: Human sEH IC50.
One may read the IC50 as the concentration that inhibits the measured activity by half. On to `CCNC(=O)CCCCCCCCCCCNC(=O)NC12CC3CC(CC(C3)C1)C2` [Compound 792, 1-(1-Adamantyl)-3-(11-ethylaminocarbonylundecyl)urea], for which the half-maximal inhibitory concentration (IC50) was determined as 0.0043 µM.

Regarding `CC(C)=CCCC(C)CCOC(=O)CCCNC(=O)NC12CC3CC(CC(C3)C1)C2` (stereo not shown) [Compound 798, 4-(3-Adamantan-1-yl-ureido) butyric Acid 3,7-Dimethyl-oct-6-enyl Ester], the IC50 was determined as 0.0076 µM.

The same experiment, now with this note: Table 18b; fluorescent assay with cyano(6-methoxy-naphthalen-2-yl)methyl trans-[(3-phenyloxiran-2-yl)methyl]carbonate as substrate; mean ± SD; read-out: IC50.
Consider `COCOc1cc(F)c(COC2CCC(NC(=O)NC34CC5CC(CC(C5)C3)C4)CC2)c(F)c1` (stereo not shown) [Compound 1106], for which the IC50 stood at 0.01 ± 0.01 µM.

Consider `CCOC(=O)COc1ccc(NC(=O)NC23CC4CC(CC(C4)C2)C3)cc1` [Compound 1184], for which the IC50 amounted to 0.01 ± 0.01 µM. The same measure, in the same setting: for `O=C(Cc1ccc(NC(=O)NC23CC4CC(CC(C4)C2)C3)cc1)NC(C(=O)NCC(C(=O)O)c1c[nH]c2ccccc12)c1ccccc1` (stereo not shown) [Compound 1425] the value was 0.01 ± 0.01 µM; for `O=C(Nc1cccc(OC(=O)c2ccccc2)c1)NC12CC3CC(CC(C3)C1)C2` [Compound 1222], 0.01 ± 0.01 µM; for `CCOCCOCCOCCCCCCNC(=O)NC12CC3CC(CC(C3)C1)C2` [Compound 1130], 0.01 ± 0.01 µM. `O=C(NC1CCCCCC1)NC1CCC(Oc2ccc(F)cc2)CC1` (stereo not shown) [Compound 1515]: the half-inhibitory concentration (IC50) worked out at 0.01 ± 0.01 µM. For `CC(C)N(C(=O)Oc1cccc(-c2ccccc2)c1)C(C)C` [Compound 1463], the concentration for half-maximal inhibition (IC50) is 11.89 ± 0.01 µM. Still for that read-out and setting: to `O=C(Nc1cccc(C(=O)OC(c2ccccc2)c2ccccc2)c1)NC12CC3CC(CC(C3)C1)C2` [Compound 1182] belongs 0.01 ± 0.01 µM; to `O=C(NC1CCC(OCc2ccccc2C(F)(F)F)CC1)NC12CC3CC(CC(C3)C1)C2` (stereo not shown) [Compound 1143], 0.01 ± 0.01 µM. Still for that read-out and setting: to `O=C(NCCOCc1ccc2ccccc2c1)NCCOCc1ccc2ccccc2c1` [Compound 1117] belongs 1.12 ± 0.01 µM; to `CCC(=O)Oc1cccc(NC(=O)NC23CC4CC(CC(C4)C2)C3)c1` [Compound 1194], 0.01 ± 0.01 µM. Still for that read-out and setting: for `O=C(Nc1ccc(O)cc1)NC12CC3CC(CC(C3)C1)C2` [Compound 1183] the value was 0.02 ± 0.01 µM; for `O=C(Nc1cccc(C(=O)NCCN2CCCC2)c1)NC12CC3CC(CC(C3)C1)C2` [Compound 1198], 0.01 ± 0.01 µM.

For `CC(=O)c1cccc(NC(=O)NC23CC4CC(CC(C4)C2)C3)c1` [Compound 1192], the IC50 stood at 0.01 ± 0.01 µM. The same measure, in the same setting: for `O=C(NC1CCC(C(=O)O)CC1)NC12CC3CC(CC(C3)C1)C2` (stereo not shown) [Compound 1173] the value was 0.01 ± 0.01 µM; for `CCC(=O)Oc1ccc(NC(=O)NC23CC4CC(CC(C4)C2)C3)cc1` [Compound 1221], 0.01 ± 0.01 µM. The same measure, in the same setting: to `CC(Oc1ccc(NC(=O)NC23CC4CC(CC(C4)C2)C3)cc1)C(=O)O` (stereo not shown) [Compound 1187] belongs 0.01 ± 0.01 µM; to `O=C(NC1CCCC(C(=O)OC(c2ccccc2)c2ccccc2)C1)NC12CC3CC(CC(C3)C1)C2` (stereo not shown) [Compound 1437], 0.01 ± 0.01 µM.

On to `O=C(O)CCc1ccc(NC(=O)NC23CC4CC(CC(C4)C2)C3)cc1` [Compound 1223], for which the IC50 was 0.01 ± 0.01 µM. With `O=C(Nc1ccc(C(F)(F)F)cc1)NC1CCC(Oc2ccc(F)cc2)CC1` (stereo not shown) [Compound 1517], the IC50 was 0.01 ± 0.01 µM.

Regarding `O=C(CC12CC3CC(CC(C3)C1)C2)NCCCCCOCCOCCOCc1ccccc1` [Compound 1063-2], the IC50 amounted to 0.01 ± 0.01 µM. For the compound `CCOC(=O)c1cccc(NC(=O)CC23CC4CC(CC(C4)C2)C3)c1` [Compound 1452], the IC50 turned out to be 0.04 ± 0.01 µM. `O=C(CCCCCNC(=O)NC12CC3CC(CC(C3)C1)C2)NC(C(=O)NC(C(=O)O)c1c[nH]c2ccccc12)c1ccccc1` (stereo not shown) [Compound 1084]: the IC50 is 0.01 ± 0.01 µM. The same measure, in the same setting: to `COCOc1cc(F)c(COC2CCC(NC(=O)NC34CC5CC(CC(C5)C3)C4)CC2)c(F)c1` (stereo not shown) [Compound 1105] belongs 0.01 ± 0.01 µM; to `O=C(O)CCCc1ccc(NC(=O)NC23CC4CC(CC(C4)C2)C3)cc1` [Compound 1224], 0.01 ± 0.01 µM. Same read-out and setting: for `O=C(O)COc1ccc(NC(=O)NC23CC4CC(CC(C4)C2)C3)cc1` [Compound 1185] the value was 0.14 ± 0.01 µM.

Take `O=C(O)CCCCCCCNC(=O)NC12CC3CC(CC(C3)C1)C2` [Compound 1214]: the IC50 worked out at 0.01 ± 0.01 µM. Same read-out and setting: for `O=C(CCCCCCOCCCc1ccccc1)NC12CC3CC(CC(C3)C1)C2` [Compound 1027] the value was 0.02 ± 0.01 µM; for `O=C(CC12CC3CC(CC(C3)C1)C2)NC1CCC(O)CC1` (stereo not shown) [Compound 1063-1], 0.05 ± 0.01 µM; for `O=C(O)Cc1ccc(NC(=O)NC23CC4CC(CC(C4)C2)C3)cc1` [Compound 1178], 0.01 ± 0.01 µM. On to `O=C(NCCCCCOCCCCCN1CCS(=O)(=O)CC1)NC12CC3CC(CC(C3)C1)C2` [Compound 1031], for which the IC50 is 0.01 ± 0.01 µM.

Regarding `CCOCCOCC(OC(=O)CCCNC(=O)NC12CC3CC(CC(C3)C1)C2)c1ccccc1` (stereo not shown) [Compound 1439], the IC50 came out at 0.01 ± 0.01 µM. `COCC(=O)c1ccc(OC2CCC(NC(=O)NC34CC5CC(CC(C5)C3)C4)CC2)cc1` (stereo not shown) [Compound 1470]: the IC50 is 0.01 ± 0.01 µM. Still for that read-out and setting: for `O=C(NC1CCC(O)CC1)C12CC3CC(CC(C3)C1)C2` (stereo not shown) [Compound 1142] the value was 0.01 ± 0.01 µM; for `O=C(Nc1ccc(Cl)cc1)NC1CCC(Oc2ccc(F)cc2)CC1` (stereo not shown) [Compound 1514], 0.01 ± 0.01 µM; for `CCCCCNC(=O)NCCOCc1ccc2ccccc2c1` [Compound 1116], 0.26 ± 0.01 µM. On to `CC(C)N(C(=O)Oc1cccc(-c2ccccc2)c1)C(C)C` [Compound 1460], for which the IC50 turned out to be 10.92 ± 0.01 µM. The same measure, in the same setting: for `O=C(Nc1ccc(Br)cc1)NC1CCC(Oc2ccc(F)cc2)CC1` (stereo not shown) [Compound 1516] the value was 0.01 ± 0.01 µM. Same read-out and setting: for `COCCCCCCCCNC(=O)NC12CC3CC(CC(C3)C1)C2` [Compound 1450] the value was 0.01 ± 0.01 µM; for `O=C(Nc1cccc(C(=O)Nc2ccc(N3CCOCC3)cc2)c1)NC12CC3CC(CC(C3)C1)C2` [Compound 1440], 0.07 ± 0.01 µM; for `CC(=O)Oc1ccc(NC(=O)NC23CC4CC(CC(C4)C2)C3)cc1` [Compound 1220], 0.01 ± 0.01 µM.

Take `O=C(CC12CC3CC(CC(C3)C1)C2)Nc1ccc(O)cc1` [Compound 1454]: the IC50 was determined as 0.03 ± 0.01 µM. Turning to `CCOCCOCCOCCCCCNC(=O)NC1C2CC3CC(C2)CC1C3` (stereo not shown) [Compound 1172], the IC50 is 0.01 ± 0.01 µM. Same read-out and setting: for `O=C(Nc1ccccc1)NC1CCC(OCc2c(F)cccc2F)CC1` (stereo not shown) [Compound 1147] the value was 0.01 ± 0.01 µM; for `Cc1c(COC(=O)NC2CCCCC2)cccc1-c1ccccc1` [Compound 1230], 0.66 ± 0.01 µM; for `CCOC(=O)c1ccc(C(OC(=O)C2CCCC(NC(=O)NC34CC5CC(CC(C5)C3)C4)C2)c2ccccc2)cc1` (stereo not shown) [Compound 1066], 0.01 ± 0.01 µM. The same measure, in the same setting: to `CCN(CC)C(=O)OCc1cccc(-c2ccccc2)c1C` [Compound 1464] belongs 7.19 ± 0.01 µM. With `O=C(Nc1ccc(I)cc1)NC1CCC(Oc2ccc(F)cc2)CC1` (stereo not shown) [Compound 1518], the IC50 amounted to 0.01 ± 0.01 µM. Same read-out and setting: to `O=C(NC1CCC(OCc2ccccc2F)CC1)NC12CC3CC(CC(C3)C1)C2` (stereo not shown) [Compound 1150] belongs 0.01 ± 0.01 µM. Still for that read-out and setting: to `O=C(NC1CCC(Oc2ccc(C(F)(F)F)cn2)CC1)NC12CC3CC(CC(C3)C1)C2` (stereo not shown) [Compound 1513] belongs 0.05 ± 0.01 µM; to `O=C(CCCCCCOCCCCc1ccccc1)NC12CC3CC(CC(C3)C1)C2` [Compound 1028], 0.01 ± 0.01 µM; to `O=C(NC12CC3CC(CC(C3)C1)C2)N[C@H]1CC[C@H](OC(=O)c2ccc([N+](=O)[O-])cc2)CC1` (relative stereo) [Compound 1076, trans-4-Nitro-benzoic acid 4-(3-tricyclo[3.3.1.13,7]decan-1-yl-ureido)-cyclohexyl ester], 0.01 ± 0.01 µM. Still for that read-out and setting: for `CC(=O)Oc1cccc(NC(=O)NC23CC4CC(CC(C4)C2)C3)c1` [Compound 1193] the value was 0.01 ± 0.01 µM; for `O=C(Nc1cccc(C(=O)NCCCN2CCOCC2)c1)NC12CC3CC(CC(C3)C1)C2` [Compound 1166], 0.06 ± 0.01 µM. With `O=C(Nc1ccc(OCCN2CCOCC2)cc1Cl)NC12CC3CC(CC(C3)C1)C2` [Compound 1448], the IC50 is 0.01 ± 0.01 µM. The same measure, in the same setting: for `O=C(O)CCCCCNC(=O)NC12CC3CC(CC(C3)C1)C2` [Compound 1213] the value was 0.17 ± 0.01 µM.

In the case of `O=C(NC1CCC(OCc2ccccc2OC(F)(F)F)CC1)NC12CC3CC(CC(C3)C1)C2` (stereo not shown) [Compound 1144], the IC50 turned out to be 0.01 ± 0.01 µM. Still for that read-out and setting: for `CCOCCOCCOCCCCCNC(=O)NC1C2CC3CC(C2)CC1C3` (stereo not shown) [Compound 1128] the value was 0.01 ± 0.01 µM; for `COCC(=O)c1ccc(OC2CCC(NC(=O)NC34CC5CC(CC(C5)C3)C4)CC2)cc1` (stereo not shown) [Compound 1469], 0.01 ± 0.01 µM; for `O=C(NCCCCCOCCN1CCOCC1)NC12CC3CC(CC(C3)C1)C2` [Compound 1196], 0.01 ± 0.01 µM. For `O=C(CCCCCCOCCCCCCc1ccccc1)NC12CC3CC(CC(C3)C1)C2` [Compound 1125], the IC50 amounted to 0.01 ± 0.01 µM.

The values above are taken from patent US8476043B2, “Inhibitors for the soluble epoxide hydrolase” (The Regents of the University of California, priority 2004, dated 2013).
